From PubChem BioAssay AID1963963 (Molecular Pharmacology Branch, DTP, NCI, 2024)
Values joined by “and” are separate entries in the source; they are usually repeats but may differ in a detail not shown here. Equal entries are not always repeated.

Tested on: 958667-338-R-J2-PDC tumor spheroids viability
Experiment: Anticancer human tumor 958667-338-R-J2-PDC patient-derived colon adenocarcinoma cell line growth inhibition [PI3K]
Details: spheroids with HUVEC and MSC; for viability, T/C: stronger effect = lower value
In short: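 Spheroid viability read-out. Co-cultures contained the tumor line plus HUVEC and human MSCs. Each agent was paired with a PI3K inhibitor (inavolisib, alpelisib, duvelisib, copanlisib) across half-log dilutions starting at clinical Cmax, or at 10 microM when Cmax was unknown.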

[1] = curve of first compound, second compound 0.0316 µM
[2] = curve of first compound, second compound 0.1 µM
[3] = curve of first compound, second compound 0.316 µM
[4] = curve of first compound, second compound 1 µM
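Also: spheroids exposed to compounds for seven days before readout.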

Q: For `Cn1cnc2c(F)c(Nc3ccc(Br)cc3Cl)c(C(=O)NOCCO)cc21` + CC(Nc1ccc2c(c1)OCCn1cc(N3C(=O)OCC3C(F)F)nc1-2)C(N)=O, which IC50 (curve of first compound, second compound 0.00316 µM) is on record?
A: 0.436 µM

Q: What about the IC50 (curve of first compound, second compound 0.01 µM) of the same compound?
A: 0.358 µM

Q: And the IC50 [1]?
A: 0.174 µM

Q: And the IC50 [2]?
A: 0.0875 µM

Q: And the IC50 [3]?
A: 0.0669 µM

Q: What about the IC50 [4] of the same compound?
A: < 0.00949 µM

Q: What about the viability, T/C (second compound 0.00316 µM, first compound 0.00949 µM) of the same compound?
A: 86.6%

Q: And the viability, T/C (second compound 0.00316 µM, first compound 0.03 µM)?
A: 74.4%

Q: And the viability, T/C (second compound 0.00316 µM, first compound 0.0949 µM)?
A: 95.9%

Q: And the viability, T/C (second compound 0.00316 µM, first compound 0.3 µM)?
A: 57.2%

Q: What about the viability, T/C (second compound 0.00316 µM, first compound 0.949 µM) of the same compound?
A: 32%

Q: What about the viability, T/C (second compound 0.00316 µM, first compound 3 µM) of the same compound?
A: 16.8%

Q: And the viability, T/C (second compound 0.01 µM, first compound 0.00949 µM)?
A: 92.2%

Q: What about the viability, T/C (second compound 0.01 µM, first compound 0.03 µM) of the same compound?
A: 101%

Q: And the viability, T/C (second compound 0.01 µM, first compound 0.0949 µM)?
A: 73%

Q: What about the viability, T/C (second compound 0.01 µM, first compound 0.3 µM) of the same compound?
A: 54.4%

Q: What about the viability, T/C (second compound 0.01 µM, first compound 0.949 µM) of the same compound?
A: 30%

Q: And the viability, T/C (second compound 0.01 µM, first compound 3 µM)?
A: 12.9%

Q: And the viability, T/C (second compound 0.0316 µM, first compound 0.00949 µM)?
A: 88.6%

Q: What about the viability, T/C (second compound 0.0316 µM, first compound 0.03 µM) of the same compound?
A: 76.3%

Q: And the viability, T/C (second compound 0.0316 µM, first compound 0.0949 µM)?
A: 60.1%

Q: And the viability, T/C (second compound 0.0316 µM, first compound 0.3 µM)?
A: 42.4%

Q: And the viability, T/C (second compound 0.0316 µM, first compound 0.949 µM)?
A: 20.8%

Q: What about the viability, T/C (second compound 0.0316 µM, first compound 3 µM) of the same compound?
A: 9.82%

Q: What about the viability, T/C (second compound 0.1 µM, first compound 0.00949 µM) of the same compound?
A: 78.7%

Q: What about the viability, T/C (second compound 0.1 µM, first compound 0.03 µM) of the same compound?
A: 57.5%

Q: And the viability, T/C (second compound 0.1 µM, first compound 0.0949 µM)?
A: 57.5%

Q: What about the viability, T/C (second compound 0.1 µM, first compound 0.3 µM) of the same compound?
A: 25.3%

Q: What about the viability, T/C (second compound 0.1 µM, first compound 0.949 µM) of the same compound?
A: 17%

Q: And the viability, T/C (second compound 0.1 µM, first compound 3 µM)?
A: 8.31%

Q: And the viability, T/C (second compound 0.316 µM, first compound 0.00949 µM)?
A: 59.7%

Q: And the viability, T/C (second compound 0.316 µM, first compound 0.03 µM)?
A: 59.5%

Q: And the viability, T/C (second compound 0.316 µM, first compound 0.0949 µM)?
A: 46.9%

Q: And the viability, T/C (second compound 0.316 µM, first compound 0.3 µM)?
A: 23.7%

Q: And the viability, T/C (second compound 0.316 µM, first compound 0.949 µM)?
A: 15.7%

Q: What about the viability, T/C (second compound 0.316 µM, first compound 3 µM) of the same compound?
A: 5.79%

Q: And the viability, T/C (second compound 1 µM, first compound 0.00949 µM)?
A: 44.6%

Q: And the viability, T/C (second compound 1 µM, first compound 0.03 µM)?
A: 43%

Q: What about the viability, T/C (second compound 1 µM, first compound 0.0949 µM) of the same compound?
A: 34.8%

Q: And the viability, T/C (second compound 1 µM, first compound 0.3 µM)?
A: 22.8%

Q: What about the viability, T/C (second compound 1 µM, first compound 0.949 µM) of the same compound?
A: 11.5%

Q: And the viability, T/C (second compound 1 µM, first compound 3 µM)?
A: 3.12%

Q: `CC1(C)CCC(Nc2ncc(C(F)(F)F)c(-c3c[nH]c4c(P(C)(C)=O)c(C#N)ccc34)n2)CN1` (stereo unspecified) + CC(Nc1ncnc2nc[nH]c12)c1cc2cccc(Cl)c2c(=O)n1-c1ccccc1 was tested. Which IC50 [1] did it give?
A: 4.48 µM

Q: And the IC50 [2]?
A: 2.34 µM

Q: What about the IC50 [3] of the same compound?
A: 4.17 µM

Q: And the IC50 [4]?
A: 3.12 µM

Q: What about the IC50 (curve of first compound, second compound 3.16 µM) of the same compound?
A: 3.03 µM

Q: And the IC50 (curve of first compound, second compound 10 µM)?
A: 3 µM

Q: And the viability, T/C (second compound 0.0316 µM, first compound 0.0316 µM)?
A: 101%

Q: What about the viability, T/C (second compound 0.0316 µM, first compound 0.1 µM) of the same compound?
A: 94.6%

Q: And the viability, T/C (second compound 0.0316 µM, first compound 0.316 µM)?
A: 82.8%

Q: What about the viability, T/C (second compound 0.0316 µM, first compound 1 µM) of the same compound?
A: 69%

Q: What about the viability, T/C (second compound 0.0316 µM, first compound 3.16 µM) of the same compound?
A: 70.1%

Q: What about the viability, T/C (second compound 0.0316 µM, first compound 10 µM) of the same compound?
A: 25.9%

Q: What about the viability, T/C (second compound 0.1 µM, first compound 0.0316 µM) of the same compound?
A: 113%

Q: What about the viability, T/C (second compound 0.1 µM, first compound 0.1 µM) of the same compound?
A: 72.1%

Q: What about the viability, T/C (second compound 0.1 µM, first compound 0.316 µM) of the same compound?
A: 72%

Q: And the viability, T/C (second compound 0.1 µM, first compound 1 µM)?
A: 62.5%

Q: What about the viability, T/C (second compound 0.1 µM, first compound 3.16 µM) of the same compound?
A: 64.9%

Q: And the viability, T/C (second compound 0.1 µM, first compound 10 µM)?
A: 20%

Q: What about the viability, T/C (second compound 0.316 µM, first compound 0.0316 µM) of the same compound?
A: 98%

Q: What about the viability, T/C (second compound 0.316 µM, first compound 0.1 µM) of the same compound?
A: 106%

Q: What about the viability, T/C (second compound 0.316 µM, first compound 0.316 µM) of the same compound?
A: 80.4%

Q: What about the viability, T/C (second compound 0.316 µM, first compound 1 µM) of the same compound?
A: 74%

Q: What about the viability, T/C (second compound 0.316 µM, first compound 3.16 µM) of the same compound?
A: 63.9%

Q: And the viability, T/C (second compound 0.316 µM, first compound 10 µM)?
A: 24.6%

Q: And the viability, T/C (second compound 1 µM, first compound 0.0316 µM)?
A: 82.4%

Q: What about the viability, T/C (second compound 1 µM, first compound 0.1 µM) of the same compound?
A: 103%

Q: What about the viability, T/C (second compound 1 µM, first compound 0.316 µM) of the same compound?
A: 90.6%

Q: And the viability, T/C (second compound 1 µM, first compound 1 µM)?
A: 65.4%

Q: And the viability, T/C (second compound 1 µM, first compound 3.16 µM)?
A: 54.5%

Q: What about the viability, T/C (second compound 1 µM, first compound 10 µM) of the same compound?
A: 30.8%

Q: What about the viability, T/C (second compound 3.16 µM, first compound 0.0316 µM) of the same compound?
A: 117%

Q: And the viability, T/C (second compound 3.16 µM, first compound 0.1 µM)?
A: 96.1%

Q: And the viability, T/C (second compound 3.16 µM, first compound 0.316 µM)?
A: 86%

Q: And the viability, T/C (second compound 3.16 µM, first compound 1 µM)?
A: 64.1%

Q: What about the viability, T/C (second compound 3.16 µM, first compound 3.16 µM) of the same compound?
A: 60.8%

Q: What about the viability, T/C (second compound 3.16 µM, first compound 10 µM) of the same compound?
A: 21.8%

Q: And the viability, T/C (second compound 10 µM, first compound 0.0316 µM)?
A: 84.6%

Q: What about the viability, T/C (second compound 10 µM, first compound 0.1 µM) of the same compound?
A: 69.1%

Q: And the viability, T/C (second compound 10 µM, first compound 0.316 µM)?
A: 84.2%

Q: And the viability, T/C (second compound 10 µM, first compound 1 µM)?
A: 66.3%

Q: What about the viability, T/C (second compound 10 µM, first compound 3.16 µM) of the same compound?
A: 49.6%

Q: What about the viability, T/C (second compound 10 µM, first compound 10 µM) of the same compound?
A: 14.2%

Q: `CCN1CCN(Cc2ccc(Nc3ncc(F)c(-c4cc(F)c5nc(C)n(C(C)C)c5c4)n3)nc2)CC1` was tested. Which viability, T/C (compound 0.00316 µM) did it give?
A: 108% and 102% and 109%

Q: And the viability, T/C (compound 0.01 µM)?
A: 86.7% and 90.8% and 95.2%

Q: What about the viability, T/C (compound 0.0316 µM) of the same compound?
A: 91% and 87.5% and 98.1%

Q: What about the viability, T/C (compound 0.1 µM) of the same compound?
A: 72.1% and 75.9% and 98.9%

Q: And the viability, T/C (compound 0.316 µM)?
A: 78.8% and 76.1% and 79.7%

Q: What about the viability, T/C (compound 1 µM) of the same compound?
A: 74.5% and 70.1% and 72.5%

Q: What about the IC50 (curve of compound) of the same compound?
A: > 1 µM
